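The compound was tested at five concentrations on cells cultured in 96-well plates, with a 48-hour exposure period. GI50 marks 50% less growth.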 Activity calls are given as the source filed them. Rule as the data show it: active = GI50 up to about 1.1 µM and inactive = higher.
Key:
Test in all cases: NCI-60 cell line screen, 48 h
[1] = test system: 786-0
[2] = test system: A498
[3] = test system: A549
[4] = test system: ACHN
[5] = test system: BT-549
[6] = test system: CAKI-1
[7] = test system: CCRF-CEM
[8] = test system: COLO 205
[9] = test system: DU-145
[10] = test system: EKVX
[11] = test system: HCC 2998
[12] = test system: HCT-116
[13] = test system: HCT-15
[14] = test system: HL-60
[15] = test system: HOP-62
[16] = test system: HOP-92
[17] = test system: HT-29
[18] = test system: Hs-578T
[19] = test system: IGROV-1
[20] = test system: K562
[21] = test system: KM12
[22] = test system: LOX IMVI
[23] = test system: M14
[24] = test system: MCF7
[25] = test system: MDA-MB-231
[26] = test system: MDA-MB-435
[27] = test system: MDA-N
[28] = test system: MOLT-4
[29] = test system: Malme-3M
[30] = test system: NCI-H226
[31] = test system: NCI-H23
[32] = test system: NCI-H460
[33] = test system: NCI-H522
[34] = test system: NCI/ADR-RES
[35] = test system: OVCAR-3
[36] = test system: OVCAR-4
[37] = test system: OVCAR-5
[38] = test system: OVCAR-8
[39] = test system: PC-3
[40] = test system: RPMI-8226
[41] = test system: RXF 393
[42] = test system: SF-268
[43] = test system: SF-295
[44] = test system: SF-539
[45] = test system: SK-MEL-28
[46] = test system: SK-MEL-2
[47] = test system: SK-MEL-5
[48] = test system: SK-OV-3
[49] = test system: SN12C
[50] = test system: SNB-19
[51] = test system: SNB-75
[52] = test system: SR
[53] = test system: SW-620
[54] = test system: T47D
[55] = test system: TK-10
[56] = test system: U-251
[57] = test system: UACC-257
[58] = test system: UACC-62
[59] = test system: UO-31

With O=C(O)c1ccccc1NC(c1ccccc1)c1ccc2cccnc2c1O (stereo not drawn) the GI50 [1] was 4.39 µM (inactive), the GI50 [2] was 24.6 µM (inactive) and the GI50 [3] was 5.56 µM (inactive). The GI50 [4] was 9.18 µM (inactive), the GI50 [5] was 11 µM (inactive) and the GI50 [6] was 9.44 µM (inactive). The GI50 [7] was 1.93 µM (inactive), the GI50 [8] was 15.7 µM (inactive) and the GI50 [9] was 18.7 µM (inactive). The GI50 [10] was 6.18 µM (inactive), the GI50 [11] was 12.3 µM (inactive) and the GI50 [12] was 3.65 µM (inactive). The GI50 [13] was 4.42 µM, the GI50 [14] was 1.2 µM (inactive) and the GI50 [15] was 7.67 µM (inactive). The GI50 [16] was 26.9 µM (inactive), the GI50 [17] was 4.4 µM (inactive) and the GI50 [18] was 22.4 µM (inactive). For the same molecule, the GI50 [19] was 20.4 µM (inactive), the GI50 [20] was 8.87 µM (inactive) and the GI50 [21] was 5.31 µM (inactive). For the same molecule, the GI50 [22] was 7.96 µM (inactive), the GI50 [23] was 5.81 µM (inactive) and the GI50 [24] was 4.85 µM (inactive). The GI50 [25] was 12.1 µM (inactive), the GI50 [26] was 14.8 µM (inactive) and the GI50 [27] was 13.4 µM (inactive). For the same molecule, the GI50 [28] was 4.06 µM (inactive), the GI50 [29] was 15.8 µM (inactive) and the GI50 [30] was 4.27 µM (inactive). The GI50 [31] was 12.6 µM (inactive), the GI50 [32] was 4.03 µM (inactive) and the GI50 [33] was 3.97 µM (inactive). For the same molecule, the GI50 [34] was 3.77 µM (inactive), the GI50 [35] was 3.63 µM (inactive) and the GI50 [36] was 5.78 µM (inactive). For the same molecule, the GI50 [37] was 8.97 µM (inactive), the GI50 [38] was 4.85 µM (inactive) and the GI50 [39] was 9.04 µM (inactive). For the same molecule, the GI50 [40] was 3.04 µM (inactive), the GI50 [41] was 10 µM (inactive) and the GI50 [42] was 5.19 µM (inactive). For the same molecule, the GI50 [43] was 4.37 µM (inactive), the GI50 [44] was 5.14 µM (inactive) and the GI50 [45] was 6.41 µM (inactive). The GI50 [46] was 25.2 µM (inactive), the GI50 [47] was 8.39 µM (inactive) and the GI50 [48] was 16.8 µM (inactive). The GI50 [49] was 6.58 µM (inactive), the GI50 [50] was 5.24 µM (inactive) and the GI50 [51] was 29.3 µM (inactive). The GI50 [52] was 2.06 µM (inactive), the GI50 [53] was 5.4 µM (inactive) and the GI50 [54] was 11.3 µM (inactive). The GI50 [55] was 13.8 µM (inactive), the GI50 [56] was 4.08 µM (inactive) and the GI50 [57] was 14 µM (inactive). For the same molecule, the GI50 [58] was 11.6 µM (inactive) and the GI50 [59] was 6.12 µM (inactive).

C=CCn1c(=O)c(C)cn(/C(=C/C(=O)OCC)C(=O)OCC)c1=O was tested, and the GI50 [1] was 5.87 µM (inactive), the GI50 [2] was 22.1 µM (inactive) and the GI50 [3] was 30 µM (inactive). The GI50 [4] was 9.08 µM (inactive), the GI50 [5] was 16.2 µM (inactive) and the GI50 [6] was 1.85 µM (inactive). The GI50 [7] was 1.42 µM (inactive), the GI50 [8] was 4.55 µM (inactive) and the GI50 [9] was 40.7 µM (inactive). For the same molecule, the GI50 [10] was 14 µM (inactive), the GI50 [11] was 17.4 µM (inactive) and the GI50 [12] was 9.62 µM (inactive). The GI50 [13] was 2.97 µM, the GI50 [14] was 2.19 µM (inactive) and the GI50 [15] was 51.1 µM (inactive). The GI50 [16] was 3.52 µM (inactive), the GI50 [17] was 12.9 µM (inactive) and the GI50 [18] was 24.5 µM (inactive). The GI50 [19] was 16.4 µM (inactive), the GI50 [20] was 4.19 µM (inactive) and the GI50 [21] was 17.2 µM (inactive). For the same molecule, the GI50 [22] was 6.28 µM (inactive), the GI50 [23] was 13.7 µM (inactive) and the GI50 [24] was 4.34 µM (inactive). For the same molecule, the GI50 [25] was 15.5 µM (inactive), the GI50 [26] was 13.5 µM (inactive) and the GI50 [27] was 13.9 µM (inactive). For the same molecule, the GI50 [28] was 5.87 µM (inactive), the GI50 [29] was 13.8 µM (inactive) and the GI50 [30] was 31.6 µM (inactive). The GI50 [31] was 16.1 µM (inactive), the GI50 [32] was 25.4 µM (inactive) and the GI50 [33] was 1.69 µM (inactive). The GI50 [34] was 21.1 µM (inactive), the GI50 [35] was 9.66 µM (inactive) and the GI50 [36] was 18.3 µM (inactive). For the same molecule, the GI50 [37] was 16.4 µM (inactive), the GI50 [38] was 17.6 µM (inactive) and the GI50 [39] was 14.8 µM (inactive). For the same molecule, the GI50 [40] was 14.6 µM (inactive), the GI50 [41] was 14 µM (inactive) and the GI50 [42] was 18.9 µM (inactive). The GI50 [43] was > 84.1 µM (inactive), the GI50 [44] was 23.2 µM (inactive) and the GI50 [45] was 15.9 µM (inactive). For the same molecule, the GI50 [46] was 23.2 µM (inactive), the GI50 [47] was 18 µM (inactive) and the GI50 [48] was 60 µM (inactive). The GI50 [49] was 14.2 µM (inactive), the GI50 [50] was 46.9 µM (inactive) and the GI50 [51] was 11.1 µM (inactive). The GI50 [52] was 5.33 µM (inactive), the GI50 [53] was 3.85 µM (inactive) and the GI50 [54] was 11.9 µM (inactive). For the same molecule, the GI50 [55] was 15.4 µM (inactive), the GI50 [56] was 14.4 µM (inactive) and the GI50 [57] was 20.5 µM (inactive). For the same molecule, the GI50 [58] was 16.5 µM (inactive) and the GI50 [59] was 15.7 µM (inactive).

Reference: ChEMBL document CHEMBL1201862, “PubChem BioAssay data set” (2004)
